Results reported in patent US8034806B2, “Bicyclic mGluR5 positive allosteric modulators and methods of making and using same” (Vanderbilt University, priority 2007, dated 2011).

Target: T1, rat mGluR5 (Rattus norvegicus, UniProt P31424)
T1 construct: expressed in transfected cells; host or cells: HEK (human embryonic kidney) cells
Experiment: Potentiation of glutamate response, calcium fluorescence (FDSS) in HEK cells transfected with rat mGluR5
Type: cell-based
Settings: for EC50: HEK cells transfected with rat mGluR5, EC20 concentration of glutamate, read-out: mGluR5 Potentiator EC50; for mGluR5 Potentiator Max: maximum extent of potentiation, normalized to the maximal response to agonist, in % (unit assumed)
Experimental: Human embryonic kidney (HEK) cells transfected with rat mGluR5 were plated in clear bottom assay plates for assay in a Functional Drug Screening System (FDSS). The cells were loaded with a […] fluorescent dye (e.g., Fluo-4), and the plates were washed and placed in the FDSS instrument. After establishment of a fluorescence baseline for twelve seconds, the compounds of the present invention were added to the cells, and the response in cells was measured. Five minutes later, an mGluR5 agonist (e.g., glutamate, 3,5-dihydroxyphenylglycine, or quisqualate) was added to the cells, and the response of the cells was measured. Potentiation of the agonist response of mGluR5 by the compounds in the present invention was observed as an increase in response to non-maximal concentrations of agonist (here, glutamate) in the presence of compound compared to the response to agonist in the absence of compound.
The above described assay operated in two modes. In the first mode, a range of concentrations of the present compounds were added to cells, followed by a single fixed concentration of agonist. If a compound acted as a potentiator, an EC50 value for potentiation and a maximum extent of potentiation by the compound at this concentration of agonist was determined by non-linear curve fitting. In the second mode, several fixed concentrations of the present compounds were added to various wells on a plate, followed by a range of concentrations of agonist for each concentration of present compound; the EC50 values for the agonist at each concentration of compound were determined by non-linear curve fitting. A decrease in the EC50 value of the agonist with increasing concentrations of the present compounds (a leftward shift of the agonist concentration-response curve) is an indication of the degree of mGluR5 potentiation at a given concentration of the present compound. An increase in the EC50 value of the agonist with increasing concentrations of the present compounds (a rightward shift of the agonist concentration-response curve) is an indication of the degree of mGluR5 antagonism at a given concentration of the present compound. The second mode also indicates whether the present compounds also affect the maximum response to mGluR5 to agonists.
Human embryonic kidney (HEK) cells transfected with rat mGluR5 were plated in clear-bottomed, poly-D-lysine-coated assay plates in glutamate-glutamine-free medium growth and incubated overnight at 37° C. in 5% CO2. The following day, cells were loaded with 2 μM calcium indicator dye, fluo-4 AM, for 1 h at 37° C. Dye was removed and replaced with assay buffer containing 1× Hanks balanced salt solution (Invitrogen, Carlsbad, Calif.), 20 mM HEPES, and 2.5 mM probenecid, pH 7.4. Cell plates were then loaded into the Functional Drug Screening System 6000 (FDSS 6000, Hamamatsu, Japan). After establishment of a fluorescence baseline for twelve seconds, the compounds of the present invention were added to the cells, and the response in cells was measured. Five minutes later, an mGluR5 agonist (e.g., glutamate, 3,5-dihydroxyphenylglycine, or quisqualate) was added to the cells, and the response of the cells was measured during a 1 minute incubation with agonists. Typically, the effect of test compounds of the present invention was on an EC20 concentration of glutamate was measured. All test compounds were dissolved and diluted in 100% DMSO and then serially diluted into assay buffer for a 2.5× stock in 0.25% DMSO; stock compounds were then added to the assay for a final DMSO concentration of 0.1%. Calcium fluorescence measures were recorded as fold over basal fluorescence; raw data was then normalized to the maximal response to agonist. Potentiation of the agonist response of mGluR5 by the compounds in the present invention was observed as an increase in response to non-maximal concentrations of agonist (here, glutamate) in the presence of compound compared to the response to agonist in the absence of compound. […]

T1 sequence (P31424 21-1203): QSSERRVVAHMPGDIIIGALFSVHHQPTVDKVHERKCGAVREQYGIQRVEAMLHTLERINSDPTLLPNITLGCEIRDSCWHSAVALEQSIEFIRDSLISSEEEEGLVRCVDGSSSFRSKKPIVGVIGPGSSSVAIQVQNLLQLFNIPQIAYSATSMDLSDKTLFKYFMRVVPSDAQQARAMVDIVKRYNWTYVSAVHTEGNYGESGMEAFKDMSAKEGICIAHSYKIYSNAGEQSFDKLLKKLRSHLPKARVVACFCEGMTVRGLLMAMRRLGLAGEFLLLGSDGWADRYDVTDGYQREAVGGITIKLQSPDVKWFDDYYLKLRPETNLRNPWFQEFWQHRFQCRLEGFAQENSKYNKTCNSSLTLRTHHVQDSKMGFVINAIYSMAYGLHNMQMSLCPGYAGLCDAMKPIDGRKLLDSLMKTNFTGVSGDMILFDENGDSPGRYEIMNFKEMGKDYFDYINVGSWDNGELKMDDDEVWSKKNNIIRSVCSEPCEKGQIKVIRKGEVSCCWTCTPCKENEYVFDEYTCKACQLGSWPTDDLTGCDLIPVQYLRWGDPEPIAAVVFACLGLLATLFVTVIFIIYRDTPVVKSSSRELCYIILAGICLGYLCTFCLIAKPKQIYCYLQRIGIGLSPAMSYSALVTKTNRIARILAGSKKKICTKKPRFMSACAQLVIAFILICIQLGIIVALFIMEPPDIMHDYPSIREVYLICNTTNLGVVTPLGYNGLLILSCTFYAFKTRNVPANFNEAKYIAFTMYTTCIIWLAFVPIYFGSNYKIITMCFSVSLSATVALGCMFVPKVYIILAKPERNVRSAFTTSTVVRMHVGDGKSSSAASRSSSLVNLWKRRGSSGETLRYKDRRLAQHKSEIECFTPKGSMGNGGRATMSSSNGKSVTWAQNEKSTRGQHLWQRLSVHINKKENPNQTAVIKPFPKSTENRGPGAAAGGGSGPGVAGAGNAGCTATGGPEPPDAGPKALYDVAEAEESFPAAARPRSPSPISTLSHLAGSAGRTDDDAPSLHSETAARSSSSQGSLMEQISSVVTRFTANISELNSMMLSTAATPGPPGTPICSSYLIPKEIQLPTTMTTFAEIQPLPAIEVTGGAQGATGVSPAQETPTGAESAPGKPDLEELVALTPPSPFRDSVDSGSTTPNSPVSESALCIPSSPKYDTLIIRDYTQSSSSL

SMILES | EC50 [nM] | mGluR5 Potentiator Max
CN1CCc2cc(C#Cc3ccccc3)ccc2C1=O [VU000068] | 25.4 | 53.4
CCCN1CCc2cc(C#Cc3ccccc3)ccc2C1=O [VU000069] | 16.2 | 96.5
CCCCN1CCc2cc(C#Cc3ccccc3)ccc2C1=O [VU000070] | 96 | 96.7
O=C1c2ccc(C#Cc3ccccc3)cc2CCN1Cc1ccccc1 [VU000071] | 546 | 89.9
O=C(CN1CCc2cc(C#Cc3ccccc3)ccc2C1=O)OCc1ccccc1 [VU000072] | 77.3 | 88.4
CCOC(=O)C(CC)N1CCc2cc(C#Cc3ccccc3)ccc2C1=O (stereo not shown) [VU000073] | 87.7 | 85.4
O=C1c2ccc(C#Cc3ccccc3)cc2CCN1CC1CC1 [VU000098] | 17.5 | 69.4
O=C1c2ccc(C#Cc3ccccc3)cc2CCN1CC1CCC1 [VU000099] | 26.7 | 90.7
O=C1c2ccc(C#Cc3ccccc3)cc2CCN1CCN1CCC1 [VU000100] | 4040 | 76.3
O=C1c2ccc(C#Cc3ccccc3)cc2CCN1CCN1CCOCC1 [VU000101] | 3570 | 84
O=C1c2ccc(C#Cc3ccccc3)cc2CCN1CCN1CCC(O)CC1 [VU000102] | 4040 | 45.7
Cc1ccccc1C#Cc1ccc2c(c1)CCNC2=O [VU000105] | 612 | 53.4
Cc1cccc(C#Cc2ccc3c(c2)CCNC3=O)c1 [VU000106] | 172 | 75.7
O=C1NCCc2cc(C#Cc3ccc(F)cc3)ccc21 [VU000107] | 259 | 81
O=C1NCCc2cc(C#Cc3ccccc3F)ccc21 [VU000108] | 145 | 80.4
COc1ccc(C#Cc2ccc3c(c2)CCNC3=O)cc1 [VU000109] |  | 28.2
COc1cccc(C#Cc2ccc3c(c2)CCNC3=O)c1 [VU000110] | 3390 | 58.1
O=C1NCCc2cc(C#Cc3ccccc3Cl)ccc21 [VU000111] | 4890 | 53.2
Cc1cc(C#Cc2ccc3c(c2)CCNC3=O)ccc1F [VU000112] | 3670 | 49.7
O=C1NCCc2cc(C#Cc3ccc(Cl)cc3)ccc21 [VU000113] |  | 28.6
O=C1NCCc2cc(C#Cc3cccc(Cl)c3)ccc21 [VU000114] | 470 | 67.9

Other lines, results leading:

EC50 [nM] | mGluR5 Potentiator Max | SMILES
853 | 58.7 | O=C1NCCc2cc(C#Cc3ccc(F)cc3F)ccc21 [VU000115]
3000 | 35.6 | O=C1NCCc2cc(C#Cc3cc(F)cc(F)c3)ccc21 [VU000116]
243 | 58 | O=C1NCCc2cc(C#Cc3ccncc3)ccc21 [VU000117]
 | 28.9 | CN(C)c1ccc(C#Cc2ccc3c(c2)CCNC3=O)cc1 [VU000118]
 | 29.7 | COc1ccc(C#Cc2ccc3c(c2)CCNC3=O)c(C)c1 [VU000119]
 | 33.5 | O=C1NCCc2cc(C#Cc3cccc(C(F)(F)F)c3)ccc21 [VU000120]
 | 34.8 | O=C1NCCc2cc(C#Cc3ccccc3C(F)(F)F)ccc21 [VU000121]
953 | 53.7 | O=C(CN1CCc2cc(C#Cc3ccccc3)ccc2C1=O)NCC1CC1 [VU000124]
3080 | 52.6 | O=C(CN1CCc2cc(C#Cc3ccccc3)ccc2C1=O)NC1CC1 [VU000125]
1.66 | 35.4 | CN(C)CCNC(=O)CN1CCc2cc(C#Cc3ccccc3)ccc2C1=O [VU000126]
3060 | 52.3 | COCCNC(=O)CN1CCc2cc(C#Cc3ccccc3)ccc2C1=O [VU000127]
 | 37.6 | O=C(CN1CCc2cc(C#Cc3ccccc3)ccc2C1=O)N1CCC(O)CC1 [VU000128]
 | 30 | O=C(CN1CCc2cc(C#Cc3ccccc3)ccc2C1=O)NCCN1CCCCC1 [VU000129]
2350 | 55.4 | O=C(CN1CCc2cc(C#Cc3ccccc3)ccc2C1=O)N1CCOCC1 [VU000130]
7200 | 35.4 | CN1CCN(C(=O)CN2CCc3cc(C#Cc4ccccc4)ccc3C2=O)CC1 [VU000131]
